For this data set, the system named is HeLa S3 cells. Nature of the data set: Cytotoxicity experiments, percentage of viable cells by Casy-1 cell counter. The class given is cell-based. The following applies: 24 h incubation. The procedure:
Cytotoxicity Experiments: HeLa S3 cells were seeded into 12-well tissue culture dishes in a density of approximately 80000 cells per well. The logarithmically growing cells were cultured for 24 h in Ham's F12 nutrient mixture containing 10% fetal bovine serum, 100 U penicillin per mL and […] streptomycin per mL and incubated at 37° C. with 5% CO2 in air and 100% humidity until the Pt-complexes were added. The cytotoxicity of the Pt-complexes was elucidated by quantifying the percentage of viable cells. Cell viability was measured after 24 h Pt-complex incubation and trypsinizing of cells, by an automatic cell counter (Casy-1, Roche Innovatis AG). These measurements are based on non-invasive (dye-free) electrical current exclusion with signal evaluation via pulse area analysis and allow the structural integrity of cells (membrane integrity and cell death).

As for `C[S+](C)[O-]` [DMSO], the “DMSO concentration at which no toxic effect was detectable” value is “Below 1.8%”. Where the note is “2.5% DMSO”, the cytotoxicity entry was “a high amount of viable Hela-S3 cells but still some dead cells were detected”. Further, for the setting “DMSO concentration from 10% down to 5%”, the cytotoxicity result is given as “extremely toxic”.

The values are drawn from patent US8962838B2, “Platinum complexes and their use” (Westfaelische Wilhelms-Universitaet Muenster, priority 2011, dated 2015).
